Here are results for 9 compounds from BindingDB's records for doi:10.1038/nchembio.1865 (University of British Columbia, 2015).

What is called Ki is the dissociation constant of the complex between target and ligand, obtained from inhibition or displacement.

The assay has as its target T1, Pancreatic alpha-amylase (Homo sapiens, UniProt P04746).
T1 sequence (P04746 whole entry): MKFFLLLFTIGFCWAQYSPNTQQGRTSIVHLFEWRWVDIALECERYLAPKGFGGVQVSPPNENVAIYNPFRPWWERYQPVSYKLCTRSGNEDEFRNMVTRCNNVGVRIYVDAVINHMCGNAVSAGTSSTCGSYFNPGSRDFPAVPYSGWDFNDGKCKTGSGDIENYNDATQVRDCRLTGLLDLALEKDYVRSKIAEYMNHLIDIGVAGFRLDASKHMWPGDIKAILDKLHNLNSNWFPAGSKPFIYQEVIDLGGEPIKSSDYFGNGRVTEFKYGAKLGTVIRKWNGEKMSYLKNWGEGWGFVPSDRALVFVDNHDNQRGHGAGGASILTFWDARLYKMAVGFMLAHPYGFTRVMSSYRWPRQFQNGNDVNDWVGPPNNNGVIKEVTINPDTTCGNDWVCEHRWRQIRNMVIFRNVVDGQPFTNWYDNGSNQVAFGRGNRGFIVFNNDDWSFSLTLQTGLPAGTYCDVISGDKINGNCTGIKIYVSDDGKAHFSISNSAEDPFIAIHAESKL
As to the kind of experiment: Kinetic Studies. To be noted: 30 °C. As for the experimental part: 2-Chloro-4-nitrophenyl α-d-maltotrioside (CNP-G3) was used as the substrate in a similar range of concentrations. Initial reaction rates for the release of chloronitrophenolate were measured and the further progress of substrate cleavage monitored continuously. Reactions were performed on a Varian Cary 4000 UV/Vis spectrophotometer at 400 nm and 30 °C.
As to `C[C@@H]1O[C@@H](Oc2c(-c3cc(O)c(O[C@@H]4OC[C@@H](O)[C@H](O)[C@H]4O)c(O)c3)oc3cc(O)cc(O)c3c2=O)[C@H](O[C@@H]2O[C@H](COC(=O)/C=C/c3ccc(O)c(O)c3)[C@@H](O)[C@H](O)[C@H]2O)[C@H](O)[C@H]1O` [MbA-GR (4)], the inhibition constant Ki was determined as 79.3 nM.

Turning to `C[C@@H]1O[C@@H](O[C@@H]2CO[C@@H](Oc3c(O)cc(-c4oc5cc(O)cc(O)c5c(=O)c4O[C@@H]4O[C@@H](C)[C@H](O)[C@@H](O)[C@H]4O[C@@H]4O[C@H](CO)[C@@H](O)[C@H](O)[C@H]4O)cc3O)[C@H](O)[C@H]2O)[C@H](O)[C@H](O)[C@H]1O` [MbA-CG (7)], the inhibitory constant (Ki) is 2240 nM.

Regarding `C[C@@H]1O[C@@H](O[C@@H]2CO[C@@H](Oc3c(O)cc(-c4oc5cc(O)cc(O)c5c(=O)c4O[C@@H]4O[C@@H](C)[C@H](O)[C@@H](O)[C@H]4O[C@@H]4O[C@H](COC(=O)/C=C/c5ccc(O)c(O)c5)[C@@H](O)[C@H](O)[C@H]4O)cc3O)[C@H](O)[C@H]2O)[C@H](O)[C@H](O)[C@H]1O` [MbA-G (1)], the Ki is 9.1 nM.

`C[C@@H]1O[C@@H](Oc2c(-c3cc(O)c(O)c(O)c3)oc3cc(O)cc(O)c3c2=O)[C@H](O[C@@H]2O[C@H](COC(=O)/C=C/c3ccc(O)c(O)c3)[C@@H](O)[C@H](O)[C@H]2O[C@@H]2O[C@H](CO)[C@@H](O)[C@H](O)[C@H]2O)[C@H](O)[C@H]1O` [MbA-RX (3)] registered an inhibition constant (Ki) of 42.4 nM.

On to `O=C(/C=C/c1ccc(O)c(O)c1)NCc1cn(CCCCCCOc2c(-c3ccc(O)c(O)c3)oc3cc(O)cc(O)c3c2=O)nn1` [mini-MbA analog inhibitor 10], for which the affinity, expressed as Ki, was 13900 nM.

On to `C[C@@H]1O[C@@H](Oc2c(-c3cc(O)c(O[C@@H]4OC[C@@H](O)[C@H](O)[C@H]4O)c(O)c3)oc3cc(O)cc(O)c3c2=O)[C@H](O[C@@H]2O[C@H](CO)[C@@H](O)[C@H](O)[C@H]2O)[C@H](O)[C@H]1O` [MbA-CGR (9)], for which the Ki stood at 128000 nM.

In turn, `C[C@@H]1O[C@@H](O[C@@H]2CO[C@@H](Oc3c(O)cc(-c4oc5cc(O)cc(O)c5c(=O)c4O[C@@H]4O[C@@H](C)[C@H](O)[C@@H](O)[C@H]4O[C@@H]4O[C@H](CO)[C@@H](O)[C@H](O)[C@H]4O[C@@H]4O[C@H](CO)[C@@H](O)[C@H](O)[C@H]4O)cc3O)[C@H](O)[C@H]2O)[C@H](O)[C@H](O)[C@H]1O` [MbA-C (6)] showed a Ki of 730 nM.

In the case of `C[C@@H]1O[C@@H](Oc2c(-c3cc(O)c(O[C@@H]4OC[C@@H](O)[C@H](O)[C@H]4O)c(O)c3)oc3cc(O)cc(O)c3c2=O)[C@H](O[C@@H]2O[C@H](CO)[C@@H](O)[C@H](O)[C@H]2O[C@@H]2O[C@H](CO)[C@@H](O)[C@H](O)[C@H]2O)[C@H](O)[C@H]1O` [MbA-CR (8)], the affinity, expressed as Ki, was 46800 nM.

Compound `C[C@@H]1O[C@@H](Oc2c(-c3cc(O)c(O)c(O)c3)oc3cc(O)cc(O)c3c2=O)[C@H](O[C@@H]2O[C@H](COC(=O)/C=C/c3ccc(O)c(O)c3)[C@@H](O)[C@H](O)[C@H]2O)[C@H](O)[C@H]1O` [mini-MbA] gave an inhibition constant (Ki) of 93.3 nM.
